PubChem BioAssay AID1259411 (Chemical Carcinogenesis Research Information System (CCRIS), 2018)
Calls of active or inactive are those of the source. No rule for the calls is given here.

Test system: rodent carcinogenicity bioassays, tumor incidence
Test: CCRIS carcinogenicity studies
In short: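 NCI-built, expert-reviewed records of carcinogenicity and related test outcomes (mutagenicity, tumor promotion/inhibition) compiled from published and report sources, historical span 1985-2011, not updated.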

CCCOC(=O)c1cc(O)c(O)c(O)c1
carcinogen call (Species: MOUSE, Strain/Sex: B6C3F1/FEMALE, Route: ORAL, Dose: 0, 6000, 12000 PPM IN DIET FOR 103 WK (STUDY DURATION: 103 WK), Dose: 0, 6000, 12000 PPM IN DIET FOR 103 WK (STUDY DURATION: 103 WK)): inactive; negative
carcinogen call (Species: MOUSE, Strain/Sex: B6C3F1/MALE, Route: ORAL, Dose: 0, 6000, 12000 PPM IN DIET FOR 103 WK (STUDY DURATION: 103 WK), Dose: 0, 6000, 12000 PPM IN DIET FOR 103 WK (STUDY DURATION: 103 WK), Tumor Site: Type of Lesion: HEMATOPOIETIC SYSTEM: MALIGNANT LYMPHOMA): equivocal
carcinogen call (Species: RAT, Strain/Sex: F344/FEMALE, Route: ORAL, Dose: 0, 6000, 12000 PPM IN DIET FOR 103 WK (STUDY DURATION: 103 WK), Dose: 0, 6000, 12000 PPM IN DIET FOR 103 WK (STUDY DURATION: 103 WK)): inactive; negative
carcinogen call (Species: RAT, Strain/Sex: F344/MALE, Route: ORAL, Dose: 0, 6000, 12000 PPM IN DIET FOR 103 WK (STUDY DURATION: 103 WK), Dose: 0, 6000, 12000 PPM IN DIET FOR 103 WK (STUDY DURATION: 103 WK), Tumor Site: Type of Lesion: PREPUTIAL GLAND: CARCINOMA OR ADENOMA OR ADENOCARCINOMA, PANCREAS: ISLET CELL ADENOMA OR CARCINOMA, ADRENAL GLAND: PHEOC, Tumor Site: Type of Lesion: PREPUTIAL GLAND: CARCINOMA OR ADENOMA OR ADENOCARCINOMA, PANCREAS: ISLET CELL ADENOMA OR CARCINOMA, ADRENAL GLAND: PHEOC): equivocal

ClC(Cl)c1ccccc1
carcinogen call (Species: RAT, Strain/Sex: F344/FEMALE, Route: ORAL, Dose: 0, 0.1, 0.5, 2% IN FEED FOR 104 WK (STUDY DURATION: 104 WK), Dose: 0, 0.1, 0.5, 2% IN FEED FOR 104 WK (STUDY DURATION: 104 WK)): inactive; negative
carcinogen call (Species: RAT, Strain/Sex: F344/MALE, Route: ORAL, Dose: 0, 0.1, 0.5, 2% IN FEED FOR 104 WK (STUDY DURATION: 104 WK), Dose: 0, 0.1, 0.5, 2% IN FEED FOR 104 WK (STUDY DURATION: 104 WK)): inactive; negative

OCCN(CCO)C(=S)S
carcinogen call (Species: MOUSE, Strain/Sex: B6AKF1/MALE, Route: GAVAGE/ORAL, Dose: 464 MG/KG FROM D 7-28 OF LIFE THEN 1112 MG/KG IN DIET, Tumor Site: Type of Lesion: LIVER: HEPATOMA): active; positive
carcinogen call (Species: MOUSE, Strain/Sex: B6C3F1/MALE,FEMALE, Route: GAVAGE/ORAL, Dose: 464 MG/KG FROM D 7-28 OF LIFE THEN 1112 MG/KG IN DIET, Tumor Site: Type of Lesion: LIVER: HEPATOMA): active; positive
carcinogen call (Species: RAT, Strain/Sex: STRAIN-CD/MALE,FEMALE, Route: ORAL, Dose: 500, 1000 PPM IN DIET FOR 78 WK): inactive; negative

c1ccc2ccccc2c1
carcinogen call (Species: MOUSE, Strain/Sex: B6C3F1/FEMALE, Route: INHALATION, Dose: 0, 10, 30 PPM 6 HR/D 5 D/WK FOR 104 WK (STUDY DURATION: 104 WK), Dose: 0, 10, 30 PPM 6 HR/D 5 D/WK FOR 104 WK (STUDY DURATION: 104 WK), Tumor Site: Type of Lesion: LUNG: ALVEOLAR/BRONCHIOLAR ADENOMA OR CARCINOMA): active; positive
carcinogen call (Species: MOUSE, Strain/Sex: B6C3F1/MALE, Route: INHALATION, Dose: 0, 10, 30 PPM 6 HR/D 5 D/WK FOR 104 WK (STUDY DURATION: 104 WK), Dose: 0, 10, 30 PPM 6 HR/D 5 D/WK FOR 104 WK (STUDY DURATION: 104 WK)): inactive; negative
carcinogen call (Species: MOUSE, Strain/Sex: CD-1/FEMALE, Route: INTRAPERITONEAL, Dose: 0, 0.25, 0.5, 1.0 UMOL IN DMSO TO NEWBORN MICE ON DAY 1, 8 AND 15 OF LIFE RESPECTIVELY (TOTAL DOSE: 1.75 UMOL) (STUDY DU, Dose: 0, 0.25, 0.5, 1.0 UMOL IN DMSO TO NEWBORN MICE ON DAY 1, 8 AND 15 OF LIFE RESPECTIVELY (TOTAL DOSE: 1.75 UMOL) (STUDY DU): inactive; negative
carcinogen call (Species: MOUSE, Strain/Sex: CD-1/MALE, Route: INTRAPERITONEAL, Dose: 0, 0.25, O.5, 1.0 UMOL IN DMSO TO NEWBORN MICE ON DAY 1,8 AND 15 OF LIFE RESPECTIVELY (TOTAL DOSE: 1.75 UMOL) (STUDY DUR, Dose: 0, 0.25, O.5, 1.0 UMOL IN DMSO TO NEWBORN MICE ON DAY 1,8 AND 15 OF LIFE RESPECTIVELY (TOTAL DOSE: 1.75 UMOL) (STUDY DUR): inactive; negative
carcinogen call (Species: RAT, Strain/Sex: F344/N/FEMALE, Route: INHALATION, Dose: 0, 10, 30, 60 PPM 6 HR/D 5 D/WK FOR 105 WK (STUDY DURATION: 105 WK), Dose: 0, 10, 30, 60 PPM 6 HR/D 5 D/WK FOR 105 WK (STUDY DURATION: 105 WK), Tumor Site: Type of Lesion: NOSE: NEUROBLASTOMA): active; positive
carcinogen call (Species: RAT, Strain/Sex: F344/N/MALE, Route: INHALATION, Dose: 0, 10, 30, 60 PPM 6 HR/D 5 D/WK FOR 105 WK (STUDY DURATION: 105 WK), Dose: 0, 10, 30, 60 PPM 6 HR/D 5 D/WK FOR 105 WK (STUDY DURATION: 105 WK), Tumor Site: Type of Lesion: NOSE: ADENOMA): active; positive

Cc1ccc2cc3c(ccc4ccccc43)c3c2c1CC3OS(=O)(=O)O (stereo unspecified)
carcinogen call (Species: RAT, Strain/Sex: SPRAGUE-DAWLEY/FEMALE, Route: SUBCUTANEOUS, Dose: 0, 0.2 UMOL IN 0.1 ML SESAME OIL: DMSO (9:1) 3/WK FOR 20 DOSES (STUDY DURATION: 52 WK), Tumor Site: Type of Lesion: INJECTION SITE: SARCOMA): active; positive

Nc1ccc(-n2c3ccccc3c3ccncc32)cc1
carcinogen call (Species: RAT, Strain/Sex: F344/MALE (30-33/GROUP), FEMALE (28-32/GROUP), Route: ORAL, Dose: 0, 20, 40 PPM IN DIET FOR 85 WK (STUDY DURATION: 85 WK), Dose: 0, 20, 40 PPM IN DIET FOR 85 WK (STUDY DURATION: 85 WK), Tumor Site: Type of Lesion: LIVER: ADENOMA, HEPATOCELLULAR CARCINOMA, COLON: ADENOCARCINOMA, THYROID: FOLLICULAR CELL ADENOMA AND CARCINOMA, MONONUC, Tumor Site: Type of Lesion: LIVER: ADENOMA, HEPATOCELLULAR CARCINOMA, COLON: ADENOCARCINOMA, THYROID: FOLLICULAR CELL ADENOMA AND CARCINOMA, MONONUC): active; positive

O=C(OOC(=O)c1ccccc1)c1ccccc1
carcinogen call (Species: MOUSE, Strain/Sex: SENCAR/FEMALE, Route: DERMAL, Dose: 0, 0.2 ML OF 100 MG/ML SOLUTION IN ACETONE 2 D/WK FOR 51 WK (STUDY DURATION: 52 WK), Tumor Site: Type of Lesion: SKIN: SQUAMOUS CELL CARCINOMA OR EPIDERMAL HYPERPLASIA): active; positive

CN(C)CCN(C)N=O
carcinogen call (Species: HAMSTER, Strain/Sex: SYRIAN/FEMALE, Route: INTRAGASTRIC, Dose: 0, 36 MG/ML CORN OIL/ETHYL ACETATE (2:1) SOLUTION ADMINISTERED AS 0.2 ML 1/WK FOR 61 WK (STUDY DURATION: 106 WK), Tumor Site: Type of Lesion: NASAL CAVITY: ADENOMA, ESOPHAGUS: CARCINOMA, PAPILLOMA): active; positive
carcinogen call (Species: HAMSTER, Strain/Sex: SYRIAN/MALE, Route: INTRAGASTRIC, Dose: 0, 36 MG/ML CORN OIL/ETHYL ACETATE (2:1) SOLUTION ADMINISTERED AS 0.2 ML 1/WK FOR 61 WK (STUDY DURATION: 106 WK), Tumor Site: Type of Lesion: NASAL CAVITY: ADENOMA, CARCINOMA, LIVER: HEPATOCELLULAR TUMOR): active; positive
carcinogen call (Species: RAT, Strain/Sex: F344/FEMALE, Route: GAVAGE, Dose: 0, 14, MG/WK FOR A TOTAL DOSE OF 2.2 MMOL (STUDY DURATION: 40 WK), Dose: 0, 14, MG/WK FOR A TOTAL DOSE OF 2.2 MMOL (STUDY DURATION: 40 WK), Tumor Site: Type of Lesion: ESOPHAGUS: TUMOR, NASAL MUCOSA: TUMOR): active; positive
carcinogen call (Species: RAT, Strain/Sex: F344/FEMALE, Route: INTRAGASTRIC, Dose: 0, 36 MG/ML CORN OIL/ETHYL ACETATE (2:1) SOLUTION ADMINISTERED AS 0.2 ML 2/WK FOR 20 WK (STUDY DURATION: 38 WK), Tumor Site: Type of Lesion: NASAL CAVITY: ADENOMA, ESOPHAGUS: CARCINOMA, PAPILLOMA): active; positive
carcinogen call (Species: RAT, Strain/Sex: F344/FEMALE, Route: INTRAVESICULAR, Dose: 0, 7 MG IN 0.2 ML ETHANOL: DEIONIZED WATER (1:3) 2/WK FOR 23 WK (TOTAL DOSE 2.5 NMOL) (STUDY DURATION: LIFESPAN), Tumor Site: Type of Lesion: ESOPHAGUS: TUMOR, NASAL MUCOSA: TUMOR): active; positive
carcinogen call (Species: RAT, Strain/Sex: F344/MALE, Route: GAVAGE, Dose: 0, 14 MG/WK FOR A TOTAL DOSE OF 2.2 MMOL (STUDY DURATION: 40 WK), Tumor Site: Type of Lesion: ESOPHAGUS: TUMOR, NASAL MUCOSA: TUMOR): active; positive
carcinogen call (Species: RAT, Strain/Sex: F344/MALE, Route: INTRAGASTRIC, Dose: 0, 36 MG/ML CORN OIL/ETHYL ACETATE (2:1) SOLUTION ADMINISTERED AS 0.2 ML 2/WK FOR 20 WK (STUDY DURATION: 38 WK), Tumor Site: Type of Lesion: NASAL CAVITY: ADENOMA, CARCINOMA, ESOPHAGUS: CARCINOMA, PAPILLOMA): active; positive
carcinogen call (Species: RAT, Strain/Sex: F344/MALE, Route: ORAL, Dose: 0, 144 MG/L DEIONIZED DRINKING WATER ADMINISTERED AS 80 ML/WK FOR 20 WK (STUDY DURATION: 38 WK), Tumor Site: Type of Lesion: NASAL CAVITY: ADENOMA, ESOPHAGUS: CARCINOMA, PAPILLOMA): active; positive
